# The source made the active and inactive calls. The rule behind the calls is not given here.
# Columns and labels:
# [1] = test system: HGC-27; assay: Induction of cell cycle arrest in human HGC-27 cells assessed as increase in S phase ratio at 0.5 to 2 uM incubated for 24 hrs by staining based flow cytometric analysis ( Rvb = 50.19%); format: functional; settings: dose 0.5-2 µM
# [2] = test system: U-251; assay: Antiproliferative activity against human U-251 cells assessed as inhibition of cell proliferation incubated for 72 hrs by MTT assay; format: functional, cell-based; settings: U-251, 72 h
# [3] = test system: HGC-27; assay: Induction of autophagy in human HGC-27 cells assessed as increase in green fluorescent number co-treated with chloroquine at 2 uM incubated for 48 hrs by DAPI staining based immunofluorescence analysis; format: functional, cell-based
# [4] = test system: HGC-27; assay: Downregulation of RNA splicing pathway in human HGC-27 cells at 2 uM incubated for 24 hrs by GESA; format: functional, cell-based
# [5] = test system: HGC-27; assay: Downregulation of SRSF1 mRNA expression in human HGC-27 cells at 2 uM incubated for 24 hrs; format: functional, cell-based
# [6] = test system: AGS; assay: Downregulation of Bcl-xl expression in human AGS cells at 0.5 to 2 uM incubated overnight by Western blotting analysis; format: functional, cell-based; settings: dose 0.5-2 µM
# [7] = test system: HGC-27; assay: Induction of apoptosis in human HGC-27 cells assessed as early apoptotic cells at 1 uM incubated for 48 hrs by annexin V-FITC and PI staining based flow cytometry analysis (reference value: 3.13%); format: functional
# [8] = test system: HGC-27; assay: Downregulation of Bcl-xl expression in human HGC-27 cells at 0.5 to 2 uM incubated overnight by Western blotting analysis; format: functional, cell-based; settings: dose 0.5-2 µM
# [9] = test system: HGC-27; assay: Induction of autophagy in human HGC-27 cells assessed as increase in LC3 II/LC3 I ratio in tumor tissue at 25 to 100 mg/kg, ip administered daily; format: functional, organism-based; settings: dose 25-100 mg/kg
# [10] = test system: HGC-27; assay: Induction of autophagy in human HGC-27 cells assessed as upregulation of LC3 II protein level at 0.5 to 2 uM incubated for 48 hrs by Western blotting analysis; format: functional, cell-based; settings: dose 0.5-2 µM
# [11] = test system: B16-F10; assay: Antiproliferative activity against mouse B16-F10 cells assessed as inhibition of cell proliferation incubated for 72 hrs by MTT assay; format: functional, cell-based; settings: B16-F10, 72 h
# [12] = test system: HGC-27; assay: Antitumor activity against human HGC-27 cells xenografted in male BALB/c nude mouse assessed as tumor growth suppression administered intraperitoneally every day for 15 days; format: functional, cell-based; settings: dose 25-100 mg/kg, route ip, time 15.0 day
# [13] = test system: AGS; assay: Antiproliferative activity against human AGS cells assessed as inhibition of cell proliferation incubated for 72 hrs by MTT assay; format: functional, cell-based
# [14] = test system: AGS; assay: Induction of autophagy in human AGS cells assessed as upregulation of ATG5 protein level at 0.5 to 2 uM incubated for 48 hrs by Western blotting analysis; format: functional, cell-based; settings: dose 0.5-2 µM
# [15] = test system: AGS; assay: Induction of apoptosis in human AGS cells assessed as viable cells at 2 uM incubated for 48 hrs by annexin V-FITC and PI staining based flow cytometry analysis (reference value: 92.0%); format: functional; settings: read-out: Activity
# [16] = test system: AGS; assay: Induction of apoptosis in human AGS cells assessed as increase in cleaved caspase-3 expression at 0.5 to 2 uM incubated overnight by Western blotting analysis; format: functional, cell-based; settings: dose 0.5-2 µM
# [17] = test system: HGC-27; assay: Induction of autophagy in human HGC-27 cells assessed as upregulation of LC3 I protein level at 0.5 to 2 uM incubated for 48 hrs by Western blotting analysis; format: functional, cell-based; settings: dose 0.5-2 µM
# [18] = test system: HGC-27; assay: Induction of autophagy in human HGC-27 cells assessed as upregulation of ATG5 protein level at 0.5 to 2 uM incubated for 48 hrs by Western blotting analysis; format: functional, cell-based; settings: dose 0.5-2 µM
# [19] = test system: HCT-116; assay: Antiproliferative activity against human HCT-116 cells assessed as inhibition of cell proliferation incubated for 72 hrs by MTT assay; format: functional, cell-based; settings: HCT-116, 72 h
# [20] = Toxicity in male ICR mouse assessed as body weight gain at 1 g/Kg, ip measured after 7 days; format: organism-based; settings: in vivo, 1000 mg/kg, 168 h, time 7 day
# [21] = test system: HGC-27; assay: Induction of apoptosis in human HGC-27 cells assessed as viable cells at 0.5 uM incubated for 48 hrs by annexin V-FITC and PI staining based flow cytometry analysis (reference value: 91.8%); format: functional; settings: read-out: Activity
# [22] = test system: AGS; assay: Induction of apoptosis in human AGS cells assessed as early apoptotic cells at 1 uM incubated for 48 hrs by annexin V-FITC and PI staining based flow cytometry analysis (reference value: 4.44%); format: functional
# [23] = test system: AGS; assay: Induction of apoptosis in human AGS cells assessed as necrotic cells at 1 uM incubated for 48 hrs by annexin V-FITC and PI staining based flow cytometry analysis (reference value: 0.44%); format: functional
# [24] = test system: AGS; assay: Downregulation of Bcl-xl protein level in human AGS cells at 0.5 to 2 uM by Western blotting analysis; format: functional, cell-based; settings: dose 0.5-2 µM
# [25] = test system: AGS; assay: Induction of autophagy in human AGS cells assessed as downregulation of P62 protein level at 0.5 to 2 uM incubated for 48 hrs by Western blotting analysis; format: functional, cell-based; settings: dose 0.5-2 µM
# [26] = test system: AGS; assay: Induction of cell cycle arrest in human AGS cells assessed as increase in S phase ratio at 0.5 to 2 uM incubated for 24 hrs by staining based flow cytometric analysis ( Rvb = 32.86%); format: functional; settings: dose 0.5-2 µM
# [27] = test system: AGS; assay: Induction of autophagy in human AGS cells assessed as upregulation of LC3 I protein level at 0.5 to 2 uM incubated for 48 hrs by Western blotting analysis; format: functional, cell-based; settings: dose 0.5-2 µM
# [28] = test system: AGS; assay: Induction of apoptosis in human AGS cells assessed as early apoptotic cells at 0.5 uM incubated for 48 hrs by annexin V-FITC and PI staining based flow cytometry analysis (reference value: 4.44%); format: functional
# [29] = test system: HGC-27; assay: Induction of apoptosis in human HGC-27 cells assessed as viable cells at 1 uM incubated for 48 hrs by annexin V-FITC and PI staining based flow cytometry analysis (reference value: 91.8%); format: functional; settings: read-out: Activity
# [30] = test system: HGC-27; assay: Induction of cell cycle arrest in human HGC-27 cells assessed as reduction in CyclinE2 expression at 0.5 to 2 uM by Western blotting analysis; format: functional, cell-based; settings: dose 0.5-2 µM
# [31] = test system: HGC-27; assay: Induction of autophagy in human HGC-27 cells assessed as decrease in P62 protein level in tumor tissue at 25 to 100 mg/kg, ip administered daily; format: functional, organism-based; settings: dose 25-100 mg/kg
# [32] = test system: MCF7; assay: Antiproliferative activity against human MCF7 cells assessed as inhibition of cell proliferation incubated for 72 hrs by MTT assay; format: functional, cell-based; settings: MCF7, 72 h
# [33] = test system: HGC-27; assay: Induction of apoptosis in human HGC-27 cells assessed as viable cells at 2 uM incubated for 48 hrs by annexin V-FITC and PI staining based flow cytometry analysis (reference value: 91.8%); format: functional; settings: read-out: Activity
# [34] = test system: HGC-27; assay: Induction of autophagy in human HGC-27 cells assessed as downregulation of P62 protein level at 0.5 to 2 uM incubated for 48 hrs by Western blotting analysis; format: functional, cell-based; settings: dose 0.5-2 µM
# [35] = test system: HGC-27; assay: Upregulation of MAP1LC3B2 mRNA expression in human HGC-27 cells at 2 uM incubated for 24 hrs; format: functional, cell-based
# [36] = Acute toxicity in male ICR mouse assessed as abnormal hepatocyte morphology at 1 g/Kg, ip measured after 7 days by H and E staining based light microscopic analysis; format: organism-based; settings: in vivo, 1000 mg/kg, 168 h, time 7 day
# [37] = test system: HGC-27; assay: Induction of apoptosis in human HGC-27 cells assessed as necrotic cells at 2 uM incubated for 48 hrs by annexin V-FITC and PI staining based flow cytometry analysis (reference value: 0.062%); format: functional
smiles,measurement,setting,value
CC(C)[C@]12O[C@H]1[C@@H]1O[C@]13[C@]1(O[C@H]1C[C@H]1C4=C(CC[C@@]13C)C(=S)OC4)[C@@H]2O,Activity,[1],75.34%
same,IC50,[2],1.62 µM
same,Activity,[3],Active
same,Activity,[4],Active
same,Activity,[5],Active
same,Activity,[6],Active
same,Activity,[7],6.12%
same,Activity,[8],Active
same,Activity,[9],Active
same,Activity,[10],Active
same,IC50,[11],0.33 µM
same,Activity,[12],Dose-dependent-effect
same,IC50,[13],0.64 µM
same,Activity,[14],Active
same,viability at 2 µM,[15],35.9%
same,Activity,[16],Active
same,Activity,[17],Active
same,Activity,[18],Active
same,IC50,[19],0.4 µM
same,Activity,[20],Non-toxic
same,viability at 0.5 µM,[21],85.9%
same,Activity,[22],17.2%
same,Activity,[23],0.73%
same,Activity,[24],Active
same,Activity,[25],Active
same,Activity,[26],52.16%
same,Activity,[27],Active
same,Activity,[28],9.27%
same,viability at 1 µM,[29],84.5%
same,Activity,[30],Active
same,Activity,[31],Active
same,IC50,[32],0.76 µM
same,viability at 2 µM,[33],52%
same,Activity,[34],Active
same,Activity,[35],Active
same,Activity,[36],Non-toxic
same,Activity,[37],0.16%
